How the values were obtained:
[1] = target: A2A receptor (Homo sapiens, UniProt P29274); assay: Inhibition of cAMP production in HEK cells; format: cell-based; conditions: HEK-293 cells with A2A receptor
Procedure: When the A2A receptor is activated, is induces the production of cAMP.
HEK-293 cells with a stable transfection of A2A receptor were bought from PerkinElmer® (# ES-011-C). […] Fresh media without the selection marker was added on the day immediately before the experiment to stop selection pressure.
Stimulation buffer b) mimics the human situation by increasing the amount of albumin present in the assay.
Compounds of the present invention were diluted 100× in either of the buffers depending on the assay performed. […] The total volume of the reaction was 20 μl (10 μl of cells, 5 μl of antagonist and 5 μl of agonist). The reaction was finalized by adding 10 μl of 4× EU-cAMP tracer working solution and 10 μl of 4× ULight-anti-cAMP working solution. The TR-FRET signal was measured after 1 hour using a Spectramax Paradigm (Molecular Devices).

[2] = in vitro; conditions: human, Caco-2, pH 7.4
[3] = IC50 (nM) (3 nM NECA as agonist, 0.1% BSA), 3 nM NECA as agonist, 0.1% BSA
[4] = IC50 (nM) (5 nM NECA as agonist, 2% HSA), 5 nM NECA as agonist, 2% HSA
[5] = IC50 (nM) (5 μM Adenosine as agonist, 2.0% HSA), 5 μM Adenosine as agonist, 2.0% HSA

Chain of A2A receptor (P29274 whole entry): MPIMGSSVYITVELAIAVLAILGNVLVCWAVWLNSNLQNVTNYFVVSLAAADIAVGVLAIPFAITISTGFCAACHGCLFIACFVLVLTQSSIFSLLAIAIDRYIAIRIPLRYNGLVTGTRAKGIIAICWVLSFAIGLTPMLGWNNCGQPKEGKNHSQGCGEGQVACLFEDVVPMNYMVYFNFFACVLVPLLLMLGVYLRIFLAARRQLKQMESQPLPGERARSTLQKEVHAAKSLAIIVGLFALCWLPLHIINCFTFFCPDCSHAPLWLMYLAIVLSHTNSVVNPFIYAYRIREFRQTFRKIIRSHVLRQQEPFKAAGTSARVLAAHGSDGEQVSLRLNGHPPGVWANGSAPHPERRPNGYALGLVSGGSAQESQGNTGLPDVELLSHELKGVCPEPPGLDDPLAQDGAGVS

Row | Compound | IC50 [1, 3] | IC50 [1, 4] | IC50 [1, 5] | efflux ratio at 120 min, 2 μM [2]
1 | Nc1nc2c(sc(=O)n2CCN2CCN(c3ccc(OCC4CCNCC4)cc3F)CC2)c2nc(-c3ccco3)nn12 [Compound 25, 5-amino-3-(2-(4-(2-fluoro-4-(piperidin-4-ylmethoxy)phenyl)piperazin-1-yl)ethyl)-8-(furan-2-yl)thiazolo[5,4-e][1,2,4]triazolo[1,5-c]pyrimidin-2(3H)-one] | 1.2 nM | 6 nM | 300 nM | 472
2 | Nc1nc2c(sc(=O)n2CCN2CCN(c3ccc(OCCN4CCNCC4)cc3F)CC2)c2nc(-c3ccco3)nn12 [Compound 27, 5-amino-3-(2-(4-(2-fluoro-4-(2-(piperazin-1-yl)ethoxy)phenyl)piperazin-1-yl)ethyl)-8-(furan-2-yl)thiazolo[5,4-e][1,2,4]triazolo[1,5-c]pyrimidin-2(3H)-one] | 0.3 nM | 2 nM | 112 nM | 187
3 | NCCNC(=O)c1ccc(N2CCN(CCn3c(=O)sc4c3nc(N)n3nc(-c5ccco5)nc43)CC2)c(F)c1 [Compound 30, 4-(4-(2-(5-amino-8-(furan-2-yl)-2-oxothiazolo[5,4-e][1,2,4]triazolo[1,5-c]pyrimidin-3(2H)-yl)ethyl)piperazin-1-yl)-N-(2-aminoethyl)-3-fluorobenzamide] | 0.4 nM | 1 nM | 42 nM | 3
4 | Nc1nc2c(sc(=O)n2CCN2CCN(c3ccc(C(=O)NCC(O)CO)cc3F)CC2)c2nc(-c3ccco3)nn12 (stereo not shown) [Compound 34, 4-(4-(2-(5-amino-8-(furan-2-yl)-2-oxothiazolo[5,4-e][1,2,4]triazolo[1,5-c]pyrimidin-3(2H)-yl)ethyl)piperazin-1-yl)-N-(2,3-dihydroxypropyl)-3-fluorobenzamide] | 0.3 nM | 6 nM | 207 nM | 192
5 | Nc1nc2c(sc(=O)n2CCN2CCN(c3ccc(CCC(=O)O)cc3F)CC2)c2nc(-c3ccco3)nn12 [Compound 40, 3-(4-(4-(2-(5-amino-8-(furan-2-yl)-2-oxothiazolo[5,4-e][1,2,4]triazolo[1,5-c]pyrimidin-3(2H)-yl)ethyl)piperazin-1-yl)-3-fluorophenyl)propanoic acid] | 0.7 nM | 7 nM | 261 nM | 25
6 | NC(=O)CNCCOc1ccc(N2CCN(CCn3c(=O)sc4c3nc(N)n3nc(-c5ccco5)nc43)CC2)c(F)c1 [Compound 45, 2-((2-(4-(4-(2-(5-amino-8-(furan-2-yl)-2-oxothiazolo[5,4-e][1,2,4]triazolo[1,5-c]pyrimidin-3(2H)-yl)ethyl)piperazin-1-yl)-3-fluorophenoxy)ethyl)amino)acetamide] | 0.8 nM | 3 nM | 100 nM | 41
7 | Nc1nc2c(sc(=O)n2CCN2CCN(c3ccc(OC4CCNCC4)cc3F)CC2)c2nc(-c3ccco3)nn12 [Compound 47, 5-amino-3-(2-(4-(2-fluoro-4-(piperidin-4-yloxy)phenyl)piperazin-1-yl)ethyl)-8-(furan-2-yl)thiazolo[5,4-e][1,2,4]triazolo[1,5-c]pyrimidin-2(3H)-one] | 1.8 nM | 1 nM | 43 nM | 329
8 | Nc1nc2c(sc(=O)n2CCN2CCN(c3ccc(OC4CCNC4)cc3F)CC2)c2nc(-c3ccco3)nn12 (stereo not shown) [Compound 48, 5-amino-3-(2-(4-(2-fluoro-4-(pyrrolidin-3-yloxy)phenyl)piperazin-1-yl)ethyl)-8-(furan-2-yl)thiazolo[5,4-e][1,2,4]triazolo[1,5-c]pyrimidin-2(3H)-one] | 0.1 nM |  | 9 nM | 166
